Results: paper PMC7916174, “Preliminary Study of a 1,5-Benzodiazepine-Derivative Labelled with Indium-111 for CCK-2 Receptor Targeting” (Molecules, 2021)

Experiments:
[1] = tested on: CCK-2R; parameters: method as in PMID 24325469; conditions: cited from earlier work
[2] = Stability of the radiotracer in human blood; type: in vitro ADME; conditions: for Stability (%), amount of intact radiotracer: Human blood
Method: (§1) HPLC analyses on indium-111-labelled IP-001 were performed on an S1125 HPLC pump system, and the column used was an Acclaim 120 C18, 3 × 150 mm, 3 µm 120 Å pore size; flow: 0.6 mL/min; gradient: minutes 0–2 A: 70% B: 30%; minutes 2–12 B: 30% -> 95%; and minutes 12–15 B: 95% -> 30%, where A: H2O (0.1% TFA) and B: MeCN. Detection was carried out with an S3245 UV–Vis and an S3700 gamma detector system.
(§2) TLC plates used for the assessment of the preparative reactions were silica gel 60 […] (0.2 mm, Merck) with the eluents mentioned for the specific product in the following paragraphs. Column chromatography was carried out with silica gel 60 (0.063–0.100 mm, Merck), and elution was performed using the eluent described for the specific preparations. The radioactive incorporation and stability of [^111In]In-IP-001 were assessed on ITLC-SG plates, developed in a 1 M ammonium acetate/MeOH 1:1 v/v solution, by using a flatbed-imaging scanner (Cyclone, Perkin Elmer).
(§3) The stability of [^111In]In-IP-001 solutions (0.5 mL, 10 nmol, 18 MBq) was assessed by means of radio-TLC or RP-HPLC at various temperatures (4, 24, and 37 °C) and in the presence of different media up to 120 h after preparation. The studies were performed by incubating the radiotracer with (i) a 0.9% NaCl solution at a 9:1 ratio, (ii) a 0.1 M HEPES solution at a 9:1 ratio, (iii) a 0.1 M EDTA solution at 9:1 and 1:1 ratios, (iv) human serum (HS) at a 9:1 ratio, and (v) HB at a 1:1 ratio. After TLC analysis, samples incubated with HB were centrifuged at 3000 rpm for 10 min to precipitate blood cells, and 200 μL of a MeCN/H2O/TFA 50/45/5 v/v/v solution was added to 400 μL of the supernatant. After another centrifugation under the same conditions, the supernatant was discarded and the residual radioactivity due to the proteins bound fraction was measured in a dose calibrator. Lipophilicity calculation were performed in octanol–water with the shaking flask method, as already described elsewhere. All experiments were performed in triplicate.

[3] = tested on: A549 cells; assay: [111In]In-IP-001 cellular uptake; type: cell-based, human
Method: A549 epithelial lung cancer cells were seeded in 6-well plates (20,000/cm^2) and allowed to adhere overnight. The following day, the medium was removed and radiotracer uptake was studied by incubating 2 × 10^5 cells at 37 °C in 2 mL of culture medium added to 30 µL (ca. 2 MBq, 1.35 μg, 1 nmol) of [^111In]In-IP-001. Uptake was monitored at 2, 4, 8, and 24 h. At these time points, the medium was removed and cells were washed twice with 2 mL of ice-cold PBS. Finally, cells were detached with 2 mL of a 0.25% trypsin/EDTA solution at 37 °C and centrifuged to separate the supernatant from the cells pellet. The radioactivity associated with the pellets was measured in a γ-spectrometer and corrected for decay. All experiments were performed in triplicate.

[4] = tested on: A549 xenograft tumors; assay: Ex vivo biodistribution in A549 tumor-bearing mice; parameters: species or system BALB/c nude mice
Method: (§4) Homozygous female BALB/c nude J:NU (JAX stock number 007850) mice were purchased from Jackson Laboratories (Bar Harbor, ME, USA). Mice were 4 weeks old at arrival, and they were hosted in an IVC system (Smart Flow AHU, Tecniplast) with autoclaved rodent bedding hosting 3–4 mice per cage. Mice were fed with autoclaved rodent food and water ad libitum. The inoculation of A549 tumor cell line was performed by the subcutaneous injection of 5 × 10^6 cells/mouse in 100 uL of […] medium (RPMI added of 10% FBS, 1% penicillin-streptomycin, 1% glutamine) into the right shoulder. […] Inoculation was carried out at 5 weeks of age after one week in the facility for acclimatization purposes. Mice were monitored every 2–3 days by measuring weight and tumor dimensions with an electronic caliper. For this purpose, two perpendicular dimensions were noted and volumes of the tumors were calculated with the formula 0.5 × L × W^2, where L is the measurement of the longest axis and W is the measurement of the axis perpendicular to L, in millimeters.
Tumors were allowed to grow for about five weeks until they reached 0.5–1.0 cm of size in one dimension (i.e., around 50–250 mm^3 volume), and then mice were divided in two groups. The experimental group (n = 5) was intravenously injected (retro-orbital venous sinus) with 150 μL of a [^111]In-IP-001 solution (2.06 nmol, 7.4MBq), while the blocked group (n = 5) was injected with 150 μL of a [^111]In-IP-001 solution added to a 50-fold molar excess of cold ligand. All injections were performed with the animals under isoflurane anesthesia (1–3%), using 30G ultra-fine insulin syringes. Real-time, live, and fast dynamic screening studies were performed right after injection and on selected time points post-injection, on a dedicated desktop, mouse-sized, planar scintigraphic system (γ-eye^TM by BIOEMTECH, Athens, Greece). The system supports fusion with a digital mouse photograph for anatomical co-registration. The main detector is based on two position-sensitive photomultiplier tubes coupled to a CsI(Na) pixelated scintillator and a medium-energy lead collimator with parallel hexagonal holes that supports a range of SPECT isotopes. The system’s field of view is 5 × 10 cm^2, with a spatial resolution of ~2 mm. […] This allowed for a fast test, right after injection, to check whether the injection was successful, and on later time points to quickly evaluate the bio-kinetics of the tracer. Tomographic SPECT/CT imaging was performed with y-CUBE^TM and x-CUBE^TM (Molecubes, Belgium), respectively, at the same selected time points post-injection. The SPECT system provides a spatial resolution of 0.6 mm for mouse imaging and of 1.5 mm for rat imaging. The CT system performs a spiral scan, it can provide images with 100 um resolution, and images were acquired with 50 kVp. Mouse imaging was performed by keeping the mice anaesthetized under isoflurane and under a constant temperature of 37 °C. SPECT scans were acquired with a 45 min duration, and each SPECT scan was followed by a high-resolution CT scan for co-registration purposes. The SPECT data were reconstructed through a maximum-likelihood expectation-maximization (MLEM) algorithm, with a 500 μm voxel size and […]. CT data were reconstructed through an iterative image space reconstruction algorithm (ISRA) algorithm with a 100 μm voxel size. Tomographic images are presented through maximum intensity projection (MIP) view). The experimental group was imaged at 2, 4, 8, and 24 h post-injection with both imaging systems, while the blocked group was imaged at 4 and 24 h.
(§5) For biodistribution studies, the injections were performed as described above, and 3 mice for both groups were sacrificed at 4 and 24 h post injection using 2% isoflurane. Main organs and tissues were removed, weighed, and counted together with blood samples, muscle, and urine by a γ-counter system (Cobra II from Packard, Canberra, ME, USA). […]

[5] = tested on: A549 xenograft tumors; assay: Blocking experiment with 50-fold molar excess of unlabeled IP-001, ex vivo biodistribution; type: in vivo, BALB/c nude mice
Method: as §4
Tumors were allowed to grow for about five weeks until they reached 0.5–1.0 cm of size in one dimension (i.e., around 50–250 mm^3 volume), and then mice were divided in two groups. The experimental group (n = 5) was intravenously injected (retro-orbital venous sinus) with 150 μL of a [^111]In-IP-001 solution (2.06 nmol, 7.4MBq), while the blocked group (n = 5) was injected with 150 μL of a [^111]In-IP-001 solution added to a 50-fold molar excess of cold ligand. All injections were performed with the animals under isoflurane anesthesia (1–3%), using 30G ultra-fine insulin syringes. […]
as §5

[6] = Lipophilicity, octanol-water shaking flask method; type: physicochemical
Method: as §3

[7] = Stability of the radiotracer in NaCl 0.9%, HEPES and EDTA (radio-TLC / RP-HPLC); type: physicochemical
Method: as §1, §2, §3

[8] = Stability of the radiotracer in human serum; type: in vitro ADME; conditions: for Stability (%), amount of intact radiotracer: Human serum
Method: as §1, §2, §3

## CC(C)(C)C(=O)CN1C(=O)[C@H](NC(=O)Nc2cccc(C(=O)O)c2)CN(C2CCCCC2)c2ccccc21 [Z-360, Nastorazepide]
[1]; CCK-2R versus CCK-1R
  selectivity relative to CCK-1R: 672
[1]; CCK-2R
  Kd: 0.47 nM

## CC(C)(C)C(=O)CN1C(=O)C(NC(=O)Nc2cccc(C(=O)NCCCCCCNC(=O)CCC(=O)NCCCOCCOCCOCCCNC(=O)CN3CCN(CC(=O)[O-])CCN(CC(=O)[O-])CCN(CC(=O)[O-])CC3)c2)CN(C2CCCCC2)c2ccccc21.[111In+3] (stereo not shown) [[^111In]In-IP-001]
[2]; 4 h
  Stability (%), amount of intact radiotracer: 98 ± 2%
[2]; 8 h
  Stability (%), amount of intact radiotracer: 95 ± 1%
[2]; 24 h
  Stability (%), amount of intact radiotracer: 95 ± 2%
[2]; 72 h
  Stability (%), amount of intact radiotracer: 93 ± 1%
[2]; 120 h
  Stability (%), amount of intact radiotracer: 93 ± 2%
[2]; human blood (HB), after 48 h
  percentage of intact compound: higher than 95%
[3]; 2 MBq, 4 h of incubation
  maximal accumulation (percent of the added radioactivity per million cells): around 5%
[3]; incubation up to 24 h
  incubation time of maximal accumulation: 4 h
[4]; 4 h post injection (abstract)
  spleen uptake: 3.88 ± 0.36 % ID/cc
[4]; 4 h post injection, i.v., n = 3
  tumor uptake: 2.36 ± 0.26 % IA/g
[4]; 4 h post injection, n = 3
  blood uptake: 4.21 ± 0.40 % IA/g
  intestines uptake: 2.39 ± 0.28 % IA/g
  kidneys uptake: 6.99 ± 0.97 % IA/g
  liver uptake: 8.25 ± 2.21 % IA/g
  lungs uptake: 2.82 ± 0.21 % IA/g
  pancreas uptake: 2.03 ± 0.16 % IA/g
  spleen uptake: 3.88± 0.36 % IA/g
[4]; 24 h post injection
  intestines uptake: 0.55 ± 0.29 % IA/g
  kidneys uptake: 3.11 ± 0.52 % IA/g
  liver uptake: 3.55 ± 1.17 % IA/g
  pancreas uptake: 0.26 ± 0.04 % IA/g
  tumor to blood (T/B) ratio: 10.19
  tumor to kidneys ratio: 0.48
  tumor to liver ratio: 0.47
  tumor to muscle (T/M) ratio: 15.72
  tumor/intestines ratio: 2.76
  tumor/lungs ratio: 2.02
  tumor/pancreas ratio: 5.85
[4]; 24 h post injection, n = 3
  tumor uptake: 1.52 ± 0.71 % IA/g
[4]; 24 h post-injection relative to 4 h
  accumulated radiotracer still retained in tumor tissue: 65%
[4]; intestines, lungs, and pancreas, from 4 h to 24 h
  decrease of the signal over 24 h: more than 73%
[5]; 4 h post injection
  difference in radioactivity in organs and tumors between normal and blocked groups: no significant differences
[5]; 24 h post injection, with 50-fold molar excess of unlabeled IP-001, n = 3
  tumor uptake, blocked group: 0.84 ± 0.33 % IA/g
[5]; blocked versus experimental group, 24 h
  lower uptake in the tumor tissue in the blocking setting: 45%
[6]
  partition coefficient (LogP): 0.45
[7]; EDTA (0.1 M), 4 h
  Stability (%), amount of intact radiotracer: 98 ± 1%
[7]; EDTA (0.1 M), 8 h
  Stability (%), amount of intact radiotracer: 98 ± 1%
[7]; EDTA (0.1 M), 24 h
  Stability (%), amount of intact radiotracer: 96 ± 2%
[7]; EDTA (0.1 M), 72 h
  Stability (%), amount of intact radiotracer: 96 ± 3%
[7]; HEPES (0.1 M), 4 h
  Stability (%), amount of intact radiotracer: 98 ± 2%
[7]; HEPES (0.1 M), 8 h
  Stability (%), amount of intact radiotracer: 97 ± 3%
[7]; HEPES (0.1 M), 24 h
  Stability (%), amount of intact radiotracer: 97 ± 3%
[7]; HEPES (0.1 M), 72 h
  Stability (%), amount of intact radiotracer: 96 ± 1%
[7]; NaCl 0.9%, 4 h
  Stability (%), amount of intact radiotracer: 98 ± 2%
[7]; NaCl 0.9%, 8 h
  Stability (%), amount of intact radiotracer: 98 ± 2%
[7]; NaCl 0.9%, 24 h
  Stability (%), amount of intact radiotracer: 97 ± 2%
[7]; NaCl 0.9%, 72 h
  Stability (%), amount of intact radiotracer: 97 ± 2%
[8]; 4 h
  Stability (%), amount of intact radiotracer: 98 ± 2%
[8]; 8 h
  Stability (%), amount of intact radiotracer: 96 ± 3%
[8]; 24 h
  Stability (%), amount of intact radiotracer: 95 ± 3%
[8]; 72 h
  Stability (%), amount of intact radiotracer: 94 ± 2%
[8]; 120 h
  Stability (%), amount of intact radiotracer: 93 ± 1%
[8]; human serum, after 48 h
  percentage of intact compound: higher than 95%
